Values quoted from earlier work in patent publication US20160128954A1 (Raptor Pharmaceuticals Inc., priority 2014, published 2016).

Columns and labels:
[1] = in vivo
HD patients = details: five patients over 2 weeks
[2] = test system: circulating white blood cells
[3] = test system: mice with the gene mutation for Huntington's disease (HD); details: mouse, in vivo

Row | SMILES | crossing of the blood-brain barrier [1] | efficacy in HD (HD patients) | time to decrease in leukocyte cystine ([2]; delivery into the small intestine (WO 2007/089670)) | depletion of intracellular cystine ([2]; taken regularly, measured in circulating white blood cells) | effect on tremors and life span [3]
1 | NCCS [cysteamine, Cysteamine (HS—CH2—CH2—NH2)] | crosses the blood-brain barrier | no efficacy | within an hour | up to 90% | 
2 | NCCSSCCN [cystamine, Cystamine] | does not, or corsses less efficiently than cysteamine |  |  |  | alleviate tremors and prolong life
